In ChEMBL document CHEMBL1158645, “Antitumor agents 37. The isolation and structural elucidation of isohelenol, a new antileukemic sesquiterpene lactone, and isohelenalin from Helenium microcephalum” (1979):

Tested on: P388
Experiment: In vivo antitumor activity against mouse P388 lymphocytic leukemia at 12.5 mg/kg
Type: functional

C[C@@H]1C[C@H]2OC(=O)C(CO)=C2[C@H](O)[C@]2(C)C(=O)C=C[C@@H]12 [ISOHELENOL]
T/C: 133%
